The values that follow come from patent US8084210B2, “Methods for the assessment of drug response” (Theranostics Laboratory, priority 2008, dated 2011).

Where “and” joins values, the source holds several entries; their conditions need not be identical. Identical values can stand only once. Like-named read-outs stand apart in the source and are kept apart here. A value given as a limit tells only on which side of the number the result lay.

The conditions of series [1]: in vivo; cited from earlier work.
For series [2] the following is noted: cited from earlier work.
The next series deals with T1, P2Y12 receptor (Homo sapiens, UniProt Q9H244).
T1 construct: light transmittance through whole blood, to measure platelet agglutination; from tissue; host or cells: Platelets in citrated whole blood (arterial or venous) of patients
The experiment in a line: Platelet function by VerifyNow P2Y12 analyser in elective PCI patients given clopidogrel (PRINC trial). Format: in vivo. Particulars: for inhibition at 75 mg / inhibition at 150 mg: human. From the text: The study protocol was approved by the Northern Regional Ethics Committee of New Zealand. Eligible patients were defined as all-corners for elective percutaneous coronary intervention who were on aspirin and naëve to clopidogrel. […] Patients were randomised into equal groups using a computerised random number generator. Block randomisation was not used, explaining the unbalanced grouping to treatment allocations. Clopidogrel was broken in half and repackaged into gelatine capsules packed with lactose powder to match placebo. Investigators and subjects were blinded to treatment allocation. A target of 120 patients was predefined for completion of the study. […] At discharge patients were randomized to receive either 75 mg or 150 mg once daily for one week and regular 75 mg once daily dosing thereafter. Adherence to the treatment regimen was tested by a phone interview and pill count. Arterial blood was sampled through 6Fr femoral sheaths and transferred immediately to 3.2% citrate 2 ml vacutainer tubes (Cat. #454321 Greiner Vacuette®, Greiner, Kremsmuenster, Austria), using a 20 G needle and syringe. After sheath removal blood was drawn by venepucture directly into vacutainer tubes. After collection the tubes were inverted four times for adequate mixing of the anticoagulant and left for ten minutes at 24 degrees before testing. Platelet function was tested at baseline, two, four and seven hours from first clopidogrel loading and at seven days. […] This device uses fibrinogen coated microbeads, an agonist of adenosine diphosphate (ADP) and light transmittance through whole blood, to measure platelet agglutination. The output of the device is measured as the proprietary platelet response unit (PRU). […] Percent inhibition is reported as the percentage change from baseline using a BASE unit. This BASE unit is derived from a second channel run parallel with the ADP channel using the agonist iso-TRAP (Thrombin Receptor Activating Peptide). From this point “percentage inhibition” will reflect this formula: % Inhibition=[(BASE−PRU)×100]/BASE. […] (2004) and Lev E I et al (2006)). The principal time point of interest for comparisons of genotype to drug response was specified as two hours after the first loading dose as at this point all patients had received only 600 mg. […] The effect of different dosages on response in genotype groups was assessed at four hours.

The subject of series [3] is ADP-induced platelet aggregation or activation. Conditions: low inhibition of ADP-induced platelet aggregation or activation; cited from earlier work.

T1 sequence (Q9H244 whole entry): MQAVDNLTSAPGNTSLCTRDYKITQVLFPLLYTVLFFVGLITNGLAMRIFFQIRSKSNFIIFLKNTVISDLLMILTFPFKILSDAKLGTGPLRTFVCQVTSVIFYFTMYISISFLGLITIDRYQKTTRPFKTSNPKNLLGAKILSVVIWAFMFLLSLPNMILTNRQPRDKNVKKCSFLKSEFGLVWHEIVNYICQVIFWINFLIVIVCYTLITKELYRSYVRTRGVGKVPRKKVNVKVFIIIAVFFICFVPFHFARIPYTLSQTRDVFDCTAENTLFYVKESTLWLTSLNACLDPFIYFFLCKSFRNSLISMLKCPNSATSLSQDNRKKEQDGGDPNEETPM

On to `CC(=O)Oc1cc2c(s1)CCN(C(C(=O)C1CC1)c1ccccc1F)C2` (stereo not shown) [prasugrel, 5-[2-cyclopropyl-1-(2-fluorophenyl)-2-oxoethyl]-4,5,6,7-tetrahydrothieno[3,2-c]pyridin-2-yl acetate], for which, in series [1], the Elimination half life was 3.7 h.
In general, inhibition refers to the change of the read-out against control, counted positive when it falls. A higher inhibition goes with a strong effect. `COC(=O)[C@H](c1ccccc1Cl)N1CCc2sccc2C1` [clopidogrel, (+)-(S)-methyl 2-(2-chlorophenyl)-2-(6,7-dihydrothieno[3,2-c]pyridin-5(4H)-yl)acetate]: the Bioavailability entry in series [2] (in vivo) is “approximately 50%”. Moreover, in series [2] (in vivo), the Elimination half life was 7.2 to 7.6 h. The “Time to peak effect after dosing” value in series [2] (in vivo) is “six”. Also, the “Share of a dose converted by esterases to inactive metabolites” value in series [2] (inactivation pathway) is approximately 85%. The Platelet inhibition on P2Y12 receptor (75 mg maintenance dose, CYP2C19*2 or *4 carriers) is 24+/−18%; on P2Y12 receptor (600 mg loading dose, CYP2C19*2 or *4 carriers), 16+/−13%; at P2Y12 receptor (2 hours after 600 mg, CYP2C19*1*1 carriers), 26+/−20%; on P2Y12 receptor (2 hours after 600 mg, CYP2C19*2, *4 and *17 carriers) it was 13+/−20%; on P2Y12 receptor (four hours, 600 mg loading dose), 23.7%; on P2Y12 receptor (four hours, 600 mg loading dose, CYP2C19*1*1 carriers) it was 35+/−27%. Moreover, the Platelet inhibition on P2Y12 receptor (four hours, 1200 mg loading dose, CYP2C19*1*1 carriers) is listed as 51+/−28%; at P2Y12 receptor (four hours, 1,200 mg split loading dose), 42%; on P2Y12 receptor (higher (150 mg) maintenance dose, CYP2C19*2 or *4 carriers), 49+/−31%; on P2Y12 receptor (higher (1200 mg) loading dose, CYP2C19*2 or *4 carriers), 36+/−24%; at P2Y12 receptor (seven days, 600 mg loading dose group), 35.7%; on P2Y12 receptor (seven days, 1,200 mg split loading dose group) it was 44.5%. Also, the Platelet inhibition on P2Y12 receptor (seven hours, 600 mg loading dose) was 28.7%; on P2Y12 receptor (seven hours, 1,200 mg split loading dose), 48.9%; on P2Y12 receptor (seven hours, two individuals carrying both 2C19 and 2C9 poor responder genotypes), 8% and 11%; on P2Y12 receptor (two hours after 600 mg, two P2Y12 H2 haplotype CC homozygotes), less than 2%. For the same molecule, the “Non-responders (seven hour percent inhibition <10%)” value at P2Y12 receptor (600 mg (low dose) group, six out of 26) is 26%; on P2Y12 receptor (1,200 mg (high dose) group, two out of 37), 5%. The inhibition at 75 mg came out at 40% against P2Y12 receptor (75 mg daily maintenance dose, CYP2C19*1*1 carriers) and 28.8% on P2Y12 receptor (one week, 75 mg once daily). Further, the inhibition at 150 mg was 51% at P2Y12 receptor (150 mg daily maintenance dose, CYP2C19*1*1 carriers) and 49.8% on P2Y12 receptor (one week, 150 mg once daily). Further, the “Patients classified as poor responders or resistant” value in series [3] was 20-40%.
